In brackets after ≈: the same amount, converted by molar mass.
details: buffer; pH 7.4; 200.0 µM

| SMILES | solubility kinetic [µg/mL] |
| --- | --- |
| CCOc1cc2c3c(c1)C(C)=CC(C)(C)N3C(=O)C2=O | < 0.6 |
| CC(=O)Nc1ccc(C(=O)OCC(=O)N2CC3(C)CC2CC(C)(C)C3)cc1 (centres undefined) | 15.6 (≈ 41.9 µM) |
| CC(C)(C)C(=O)Nc1cc2c3c(c1)CC(=O)N3CCC2 | 35.9 (≈ 132 µM) |
| CC1(C)Cc2cccc(C(=O)Nc3ccc(F)cc3F)c2O1 | 0.7 (≈ 2.31 µM) |
| CC(OC(=O)c1nsc(Cl)c1Cl)C(=O)NC1CCCCC1 (centres undefined) | 31.6 (≈ 90 µM) |
| O=[N+]([O-])c1ccc(S(=O)(=O)c2cccc(C(F)(F)F)c2)nc1 | 4.4 (≈ 13.2 µM) |
| CS(=O)(=O)c1ccc(-c2csc(-c3cccnc3)n2)cc1 | 5.6 (≈ 17.7 µM) |
| Cn1c(C(=O)N2CCC(C(N)=O)CC2)cc2cc(Cl)ccc21 | 1.2 (≈ 3.75 µM) |
| O=C(O)c1cc2n(n1)C(C(F)(F)F)CC(C1CC1)N2 (centres undefined) | > 41.3 |
| COc1cccc(/C=C2\NC(=O)NC2=O)c1O | 32.6 (≈ 139 µM) |
| CC(C)N(Cc1nc(-c2ccc3c(c2)OCO3)no1)CC1CCC(=O)N1 (centres undefined) | 37.3 (≈ 104 µM) |
| CCC(C)NC(=O)COCc1cc(-c2ccc3c(c2)OCO3)on1 (centres undefined) | > 49.9 |
| CCN(CC(=O)NC1CCS(=O)(=O)C1)c1ccc(S(=O)(=O)N(CC)CC)cc1[N+](=O)[O-] (centres undefined) | > 71.5 |
| O=C(Nc1ccc(Cl)c(S(=O)(=O)N2CCOCC2)c1)c1ccncc1 | > 57.3 |
| OC1/C(=C/c2ccccc2F)N2CCC1CC2 (centres undefined) | > 35 |
| CCn1c(=O)c2ccccc2n(Cc2ccc([N+](=O)[O-])cc2)c1=O | 5.6 (≈ 17.2 µM) |
| O=C(NCC1CCCO1)c1cc2ccccc2nc1Cl (centres undefined) | > 43.6 |
| O=C(O)CSc1ncnc2scc(-c3ccccc3)c12 | > 45.4 |

| SMILES | solubility kinetic [µg/mL] |
| --- | --- |
| CC(Sc1nnc(N)s1)C(=O)Nc1nccs1 (centres undefined) | > 43.1 |
| CC(=O)Nc1nonc1-c1nc2ccccc2n1C | 3.1 (≈ 12.1 µM) |
| CN1CCc2c(sc3c2C(=O)NC(/C=C\c2ccccc2)N3)C1 (centres undefined) | 44.6 (≈ 137 µM) |
| CC(C)(C)NC(=S)NC1CC1 | 25.8 (≈ 150 µM) |
| C=CCNc1nc(N)c([N+](=O)[O-])c(Nc2ccccc2OC)n1 | 0.4 (≈ 1.26 µM) |
| Cc1cc(N/N=C/c2ccc(O)cc2O)nc(N2CCOCC2)n1 | > 49.4 |
| Cc1cc(C)c(NC(=O)c2ccc3nccnc3c2)c(C)c1 | 41.5 (≈ 142 µM) |
| CC1(C)CC(=O)C=C(Nc2ccccc2C#N)C1.Cl | 38.2 |
| O=C(N1CCOCC1)N1CCN(S(=O)(=O)c2ccc(Cl)cc2)C1 | 44.5 (≈ 124 µM) |
| CC1CCC(N2CCNCC2)CC1.Cl (centres undefined) | > 32.8 |
| Cc1cccc(NC(=O)c2ccc(S(=O)(=O)N3CCOCC3)cc2)n1 | 48.2 (≈ 133 µM) |
| Cc1cc(C)nc(N(C#N)Cc2cccc(Cl)c2)n1 | 23.6 (≈ 86.5 µM) |
| CCN(CC)c1ccc(C(=S)NC2CCCCC2)cc1 | 2 (≈ 6.89 µM) |
| CC(CN1CCC(O)CC1)c1ccccc1 (centres undefined) | 26.6 (≈ 121 µM) |
| c1ccc2sc(C3CCNCC3)nc2c1 | > 32.7 |
| COc1ccc(CC2SC(=Nc3ccc(F)cc3)NC2=O)cc1 (centres undefined) | 2.3 (≈ 6.96 µM) |
| O=C1CN(C(=O)COC(=O)c2ccc(Cl)c(S(=O)(=O)N3CCCCC3)c2)c2ccccc2N1 | 4.7 (≈ 9.55 µM) |
| Cc1csc(NC(=O)c2ccc(Br)s2)n1 | 24.9 (≈ 82.1 µM) |

Now from value to molecule:

| solubility kinetic [µg/mL] | SMILES |
| --- | --- |
| 42.6 (≈ 125 µM) | Cc1ccc(CNC(=O)c2c(-c3ccccc3Cl)noc2C)cc1 |
| 41.7 (≈ 134 µM) | Cc1ccccc1OCC(O)CN1C(=O)c2ccccc2C1=O (centres undefined) |
| > 48.2 | CCn1cc(CCCC(=O)NCc2cccnc2)c2ccccc21 |
| > 49.8 | Cc1ccc(C)c(NC(=O)CN(C)C(=O)c2ccc(Cl)nc2)c1 |
| 32.1 (≈ 118 µM) | CC(SCc1ccccc1)C(=O)Nc1ccccc1 (centres undefined) |
| 32.4 | COc1cccc(-c2nc(CCl)cs2)c1OC.Cl |
| 6.2 (≈ 21.9 µM) | COc1cccc(CNc2nc3ccccc3n2C)c1O |
| 37.9 (≈ 114 µM) | Cn1c(SCC(=O)Nc2cccnc2Cl)nc2ccccc21 |
| > 52.4 | COc1ccc(CNC(=O)CCN2C(=S)NC(C)(C)CC2C)cc1 (centres undefined) |
| > 53.5 | CC(C)(C)c1ccc(Oc2ccc(NC(=O)CCCC(=O)O)cn2)cc1 |
| > 49.1 | COc1ccc(CC(=O)NCCCCc2ccccc2)cc1OC |
| 39.8 (≈ 122 µM) | COc1ccccc1N1CC=C(c2cccc([N+](=O)[O-])c2)NC1=O |
| 39.8 (≈ 116 µM) | O=C(Nc1ccccc1C(F)(F)F)c1ccccc1Br |
| 41.4 (≈ 138 µM) | CCc1ccccc1NC(=O)COc1ccc2c(c1)OCO2 |
| 29.6 (≈ 127 µM) | Cc1nc(NC(=O)c2ccccc2)sc1C |
| 24.1 (≈ 86.5 µM) | O=C(CNC(=O)c1ccco1)Nc1ccc(Cl)cc1 |
| 52.1 (≈ 143 µM) | COc1ccc(S(=O)(=O)N2CCN(c3ccccn3)CC2)c(OC)c1 |
| 18.4 (≈ 80.1 µM) | COc1ccc(OC)c2sc(Cl)nc12 |
| > 47.1 | Nc1nc(NC(=O)c2ccccc2Cl)nn1-c1ccccc1 |
| 15.1 (≈ 42.5 µM) | COc1ccc(OC)c(/C=C/C(=O)OCC(=O)NCc2ccccc2)c1 |
| 36 (≈ 149 µM) | Cc1cc(C(=O)O)ccc1NCc1cccnc1 |
| 35.3 (≈ 109 µM) | COC(=O)c1sccc1NC(=S)Nc1ccc(OC)cc1 |
| 21.5 (≈ 68.9 µM) | O=C(NCCSCc1ccc(Cl)cc1)c1cccs1 |

Reference: PubChem BioAssay AID1996
